# Source: patent US20160159814A1, “GLYCINE TRANSPORTER INHIBITOR” (TAISHO PHARMACEUTICAL CO., LTD., priority 2013, published 2016)
# Target: T1, human type 1 glycine transporter (GlyT1) (Homo sapiens, UniProt P48067)
# T1 construct: T98G cells (glioma cells) expressing human type 1 glycine transporter (GlyT1) were used; endogenous in cells; host or cells: T98G cells (human glioma cells)
# T1 sequence (P48067 1-706): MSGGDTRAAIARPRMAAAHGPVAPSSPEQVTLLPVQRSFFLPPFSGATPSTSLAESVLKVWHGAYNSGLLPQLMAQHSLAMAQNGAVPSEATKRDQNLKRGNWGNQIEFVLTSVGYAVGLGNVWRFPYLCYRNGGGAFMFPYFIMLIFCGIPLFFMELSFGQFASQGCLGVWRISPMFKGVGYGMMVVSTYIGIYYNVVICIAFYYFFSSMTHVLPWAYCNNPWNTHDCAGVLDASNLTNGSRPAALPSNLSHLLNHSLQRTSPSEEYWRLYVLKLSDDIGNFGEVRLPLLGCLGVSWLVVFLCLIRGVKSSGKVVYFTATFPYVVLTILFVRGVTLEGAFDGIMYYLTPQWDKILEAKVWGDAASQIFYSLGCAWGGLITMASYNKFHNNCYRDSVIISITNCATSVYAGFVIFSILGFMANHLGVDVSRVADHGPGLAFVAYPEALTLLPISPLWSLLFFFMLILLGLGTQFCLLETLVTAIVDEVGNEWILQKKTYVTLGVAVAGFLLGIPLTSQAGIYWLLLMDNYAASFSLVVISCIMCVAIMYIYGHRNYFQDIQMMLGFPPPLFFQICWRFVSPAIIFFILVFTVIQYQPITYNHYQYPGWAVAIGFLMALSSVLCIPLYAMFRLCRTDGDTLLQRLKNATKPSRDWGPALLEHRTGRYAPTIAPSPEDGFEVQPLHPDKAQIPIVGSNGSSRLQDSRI
# Experiment: Glycine uptake inhibition experiment ([3H] glycine uptake in T98G cells expressing GlyT1)
# Assay type: cell-based
# Settings: not given
# Outline: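 T98G glioma cells expressing human GlyT1 were pretreated 10 min with compound in HEPES buffer pH 7.4 (0.2% BSA), then incubated with compound plus 250 nM final [3H]glycine for 15 min at room temperature. Intracellular radioactivity was counted after NaOH lysis; 10 μM ALX5407 defined non-specific uptake. IC50 came from 10^−9–10^−5 M curves.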
row,IC50 [nM],SMILES
1,140,"COc1cc(CN2C(=O)C(F)(F)c3c(C(O)C(F)F)cccc32)cnc1F (single isomer, unassigned) [Compound 273, 4-(2,2-difluoro-1-hydroxyethyl)-3,3-difluoro-1-[(6-fluoro-5-methoxypyridin-3-yl)methyl]-1,3-dihydro-2H-indol-2-one]"
2,4.6,"O=C1N(Cc2ccc(F)c(Br)n2)c2cccc(C(O)C(F)F)c2C1(F)F (single isomer, unassigned) [Compound 274, 1-[(6-bromo-5-fluoropyridin-2-yl)methyl]-4-(2,2-difluoro-1-hydroxyethyl)-3,3-difluoro-1,3-dihydro-2H-indol-2-one]"
3,9.1,"N#Cc1nc(CN2C(=O)C(F)(F)c3c(C(O)C(F)F)cccc32)ccc1F (single isomer, unassigned) [Compound 275, 6-{[4-(2,2-difluoro-1-hydroxyethyl)-3,3-difluoro-2-oxo-2,3-dihydro-1H-indol-1-yl]methyl}-3-fluoropyridine-2-carbonitrile]"
4,200,"N#Cc1cc(Cl)cnc1CN1C(=O)C(F)(F)c2c(C(O)C(F)F)cccc21 (single isomer, unassigned) [Compound 276, 5-chloro-2-{[4-(2,2-difluoro-1-hydroxyethyl)-3,3-difluoro-2-oxo-2,3-dihydro-1H-indol-1-yl]methyl}pyridine-3-carbonitrile]"
5,210,"CCOc1ccc(CN2C(=O)C(F)(F)c3c(C(O)C(F)F)cccc32)cn1 (single isomer, unassigned) [Compound 278, 4-(2,2-difluoro-1-hydroxyethyl)-1-[(6-ethoxypyridin-3-yl)methyl]-3,3-difluoro-1,3-dehydro-2H-indol-2-one]"

# Same assay, conditions: glycine uptake inhibition
row,IC50 [nM],SMILES
1,15,"CC(O)c1cccc2c1C(F)(F)C(=O)N2Cc1cccc(Cl)n1 (stereo not shown) [Compound 1, 1-[(6-chloropyridin-2-yl)methyl]-3,8-difluoro-4-(1-hydroxyethyl)-1,3-dihydro-2H-indol-2-one]"
2,51,"O=C1N(Cc2cccc(Cl)n2)c2cccc(C(O)C(F)(F)F)c2C1(F)F (stereo not shown) [Compound 2, 1-[(6-chloropyridin-2-yl)methyl]-3,3-difluoro-4-(2,2,2-trifluoro-1-hydroxyethyl)-1,3-dihydro-2H-indol-2-one]"
3,32,"CC(O)c1cccc2c1C(F)(F)C(=O)N2Cc1cncc(Cl)c1 (stereo not shown) [Compound 3, 1-[(5-chloropyridin-3-yl)methyl]-3,3-difluoro-4-(1-hydroxyethyl)-1,3-dihydro-2H-indol-2-one]"
4,27,"O=C1N(Cc2cccc(Cl)n2)c2cccc(C(O)C(F)F)c2C1(F)F (stereo not shown) [Compound 10, 1-[(6-chloropyridin-2-yl)methyl]-4-(2,2-difluoro-1-hydroxyethyl)-3,3-difluoro-1,3-dihydro-2H-indol-2-one]"
5,17,"O=C1N(Cc2cccc(Cl)n2)c2cccc(C(O)CF)c2C1(F)F (stereo not shown) [Compound 11, 1-[(6-chloropyridin-2-yl)methyl]-3,3-difluoro-4-(2-fluoro-1-hydroxyethyl)-1,3-dihydro-2H-indol-2-one]"
6,700,"CC(C)(O)c1cccc2c1C(F)(F)C(=O)N2Cc1cccc(Cl)n1 [Compound 12, 1-[(6-chloropyridin-2-yl)methyl]-3,3-difluoro-4-(2-hydroxypropan-2-yl)-1,3-dihydro-2H-indol-2-one]"
7,96,"N#Cc1cccc(CN2C(=O)C(F)(F)c3c(C(O)C(F)(F)F)cccc32)n1 (stereo not shown) [Compound 13, 6-{[3,3-difluoro-2-oxo-4-(2,2,2-trifluoro-1-hydroxyethyl)-2,3-dihydro-1H-indol-1-yl]methyl}pyridine-2-carbonitrile]"
8,120,"N#Cc1cc(CN2C(=O)C(F)(F)c3c(C(O)C(F)(F)F)cccc32)ccn1 (stereo not shown) [Compound 14, 4-{[3,3-difluoro-2-oxo-4-(2,2,2-trifluoro-1-hydroxyethyl)-2,3-dihydro-1H-indol-1-yl]methyl}pyridine-2-carbonitrile]"
9,180,"CCC(O)c1cccc2c1C(F)(F)C(=O)N2Cc1cccc(Cl)n1 (stereo not shown) [Compound 15, 1-[(6-chloropyridin-2-yl)methyl]-3,3-difluoro-4-(1-hydroxypropyl)-1,3-dihydro-2H-indol-2-one]"
10,140,"O=C1N(Cc2cccc(Cl)n2)c2cccc(CO)c2C1(F)F [Compound 16, 1-[(6-chloropyridin-2-yl)methyl]-3,3-difluoro-4-(hydroxymethyl)-1,3-dihydro-2H-indol-2-one]"
11,72,"O=C1N(Cc2cncc(Cl)c2)c2cccc(C(O)C(F)(F)F)c2C1(F)F (stereo not shown) [Compound 17, 1-[(5-chloropyridin-3-yl)methyl]-3,3-difluoro-4-(2,2,2-trifluoro-1-hydroxyethyl)-1,3-dihydro-2H-indol-2-one]"
12,5900,"O=C1N(Cc2cccc(Cl)n2)c2cccc(C3(O)CCC3)c2C1(F)F [Compound 24, 1-[(6-chloropyridin-2-yl)methyl]-3,3-difluoro-4-(1-hydroxycyclobutyl)-1,3-dihydro-2H-indol-2-one]"
13,7600,"O=C1N(Cc2cccc(Cl)n2)c2cccc(C3(O)COC3)c2C1(F)F [Compound 25, 1-[(6-chloropyridin-2-yl)methyl]-3,3-difluoro-4-(3-hydroxyoxetan-3-yl)-1,3-dihydro-2H-indol-2-one]"
14,1500,"O=C1N(Cc2cccc(Cl)n2)c2cccc(C3(O)CC3)c2C1(F)F [Compound 26, 1-[(6-chloropyridin-2-yl)methyl]-3,3-difluoro-4-(1-hydroxycyclo-propyl)-1,3-dihydro-2H-indol-2-one]"

# Same assay, conditions: table section whose head prints (μm)
row,IC50 [nM],SMILES
1,260,"N#Cc1nccc(CN2C(=O)C(F)(F)c3c(C(O)C(F)F)cccc32)c1Cl (single isomer, unassigned) [Compound 267]"
2,16,"O=C1N(Cc2cc(C(F)(F)F)c(Cl)cn2)c2cccc(C(O)C(F)F)c2C1(F)F (single isomer, unassigned) [Compound 268, 1-{[5-chloro-4-(trifluoromethyl)pyridin-2-yl]methyl)-4-(2,2-difluoro-1-hydroxyethyl)-3,3-difluoro-1,3-dihydro-2H-indol-2-one]"
3,330,"O=C1N(Cc2cnc(Cl)cc2Cl)c2cccc(C(O)C(F)F)c2C1(F)F (single isomer, unassigned) [Compound 269, 1-[(4,6-dichloropyridin-3-yl)methyl]-4-(2,2-difluoro-1-hydroxyethyl)-3,3-difluoro-1,3-dihydro-2H-indol-2-one]"
4,8.4,"N#Cc1nc(CN2C(=O)C(F)(F)c3c(C(O)C(F)F)cccc32)ccc1C(F)(F)F (single isomer, unassigned) [Compound 270, 6-{[4-(2,2-difluoro-1-hydroxyethyl)-3,3-difluoro-2-oxo-2,3-dihydro-1H-indol-1-yl]methyl}-3-(trifluoromethyl) pyridine-2-carbonitrile]"
5,5.5,"N#Cc1nc(CN2C(=O)C(F)(F)c3c(C(O)C(F)F)cccc32)ccc1Cl (single isomer, unassigned) [Compound 271, 3-chloro-6-{[4-(2,2-difluoro-1-hydroxyethyl)-3,3-difluoro-2-oxo-2,3-dihydro-1H-indol-1-yl]methyl}pyridine-2-carbonitrile]"
6,27,"N#Cc1cc(CN2C(=O)C(F)(F)c3c(C(O)C(F)F)cccc32)cnc1F (single isomer, unassigned) [Compound 272, 5-{[4-(2,2-difluoro-1-hydroxyethyl)-3,3-difluoro-2-oxo-2,3-dihydro-1H-indol-1-yl]methyl}-2-fluoropyridine-3-carbonitrile]"
